Test results as given in patent publication US6358977B1, “Use of 4-piperidinemethanol derivatives in treatment of neurodevelopmental disorders” (A. Carlsson Research AB, priority 1998, dated 2002).
“Also recorded” adds a separate entry of the source.

Test system: Male NMRI mice
Experiment: Animal model of autism: defective habituation (locomotor activity) in mice rendered hypoglutamatergic with MK-801
Format: in vivo
From the text: The inventor of the present invention and her coworkers have developed an animal model of autism, where mice are rendered hypoglutamatergic by treatment with the glutamate antagonist MK-801 (dizocilpine). Similarly to persons with autism, these hypoglutamatergic animals display defective habituation, perseverant behavior (e.g. relentless forward locomotion, so-called “obstinate progression”), stereotypies, a meager behavioral repertoire and difficulties to change behavioral program. The researchers have chosen to focus their investigation on the defective habituation, since this variable is easily quantified, and a prominent feature of autism.
Male NMRI mice (B&K Universal AB, Sollentuna, Sweden) weighing 25-30g at the time of testing were used in the experiments. Animals were housed in groups of about 20 per cage for at least one week before the experiment was carried out, with free access to water and food. Temperature: 20-22° C.; 12h light-dark cycle (lights on 6 AM).
(+)-MK-801 hydrogen maleate (dizocilpine; Research Biochemical Inc) was dissolved in physiological saline. M100907 [(+)-(R)-α-(2,3-dimethoxyphenyl)-1-[2-(4-fluorophenyl) ethyl]-4-piperidinemethanol; courtesy Hoechst Marion Roussel, Inc USA] was dissolved in a few microliters of acetic acid and a 5.5% glucose solution. The injection volume was 10 ml/kg. Control. animals were always given the same solvent as the drug was dissolved in.
Locomotor activity was measured using activity meters (Diaiscan animal activity monitor, model RXYZM (16) Tao, Omnitech Electronics, Columbus, Ohio, USA). The equipment consists of eight light and sound attenuated boxes (42×42×30 cm) with infrared photo sensors along the front and the side near the floor of the boxes.
When moved to a novel environment, normal mice display an initial phase of exploratory activity lasting about 30 minutes. […] The results shown in the figure are medians and upper and lower quartiles.
The inventor and […] co-workers then tested a compound according to the invention, namely M100907. […] M100907 was administered intraperitoneally immediately before the commencement of the behavioral recording. The M100907 doses were 0.001., 0.01 and 0.1 mg/kg, respectively. The results shown are medians and upper and lower quartiles (veh=vehicle=controls).

Compound | effect on MK-801-induced deficient habituation (loss of habituation, FIG. 2) (M100907 0.001, 0.01 and 0.1 mg/kg intraperitoneally immediately before behavioral recording, MK-801-treated mice, ordinate m/30 min) | interference with normal behavior (M100907 0.001, 0.01 and 0.1 mg/kg intraperitoneally, mice) | hyperactivity induced by the glutamate antagonist MK-801 (mouse, M100907 intraperitoneally) | habituation in novel environment (loss of habituation, FIG. 1) (MK-801 0.3 or 0.8 mg/kg intraperitoneally immediately before 70 minutes recording, ordinate counts/5 min interval)
COc1cccc([C@H](O)C2CCN(CCc3ccc(F)cc3)CC2)c1OC [M100907, R-(+)-α-(2,3-dimethoxyphenyl)-1-[2-(4-fluorophenylethyl)]-4-piperidine-methanol] | displays anti-autistic effects; also recorded: alleviates the deficient habituation | without interfering with normal behavior | reducing the hyperactivity | 
C[C@]12N[C@H](Cc3ccccc31)c1ccccc12 [MK-801, reference compound] |  |  |  | deficient habituation; also recorded: impaired habituation
